# Test: physchem
# Settings: 25 °C, pH 4, aqueous buffer, thermodynamic from solid
# Protocol: 25 mg compound are placed in 2 ml solvent. […] Thereafter, the solution or suspension is filtered and the remaining solution is analyzed via HPLC. The solubility is determined by comparison of the total area of the substance peak to a calibration curve (external standard).
# Thereafter, the solution was centrifuged and analyzed via HPLC. The solubility was determined by comparison of the total area of the substance peak to a calibration curve (external standard). The measurements were conducted in triplicates.
smiles,measurement,value
"CCc1c(N2CC[C@H](O)C2=O)cccc1S(=O)(=O)N[C@@H](CNC(=O)c1ccc(Cl)s1)C(=O)OCCc1nccn1C.Cl [Example 2, 2-(1-Methyl-1H-imidazol-2-yl)ethyl 3-[(5-chlorothiophene-2-carbonyl)amino]-N-{2-ethyl-3-[(3S)-3-hydroxy-2-oxopyrrolidin-1-yl]benzene-1-sulfonyl}-S-alaninate hydrochloride]",solubility,> 500 mg/mL

# From US20250002483A1, “S[…]-ALANINATE DERIVATIVES” (Bayer Aktiengesellschaft, priority 2021, published 2025)
